Measurements as given in publication PMC8805583, “Discovery of Herbacetin as a Novel SGK1 Inhibitor to Alleviate Myocardial Hypertrophy” (Advanced Science, 2021).

Columns and labels:
[1] = system: primary rat cardiomyocytes; assay: Phenylephrine (PE)-induced hypertrophy in primary cardiomyocytes (phalloidin cell area, RT-PCR, western blot); assay type: cell-based
Protocol: The magnitude of cardiac hypertrophy was then evaluated by directly measuring the cell area after Alexa Fluor 488 phalloidin staining.
Primary cultures of cardiac myocytes were prepared from neonatal rat hearts using the Neonatal Heart Dissociation Kit (MACS, Germany) according to the manufacturer's protocol. Cardiomyocyte cultures were plated in gelatin‐coated plates in a plating medium containing 10% serum. After 24 h of plating, the medium was then replaced with a serum‐free maintenance medium and incubated for another 24 h before being used for further study.
For phenylephrine (PE)‐mediated cardiac hypertrophy, cardiomyocytes cultured in 6‐well plates were stimulated with PE (50 µmol) for 48 h in serum‐free medium with or without Ext.R or HBT (50 µmol) treatment. Cardiomyocytes were lysed in cell lysis buffer to isolate protein or total RNA for western blotting or PCR analysis.
Phenylephrine (PE) was obtained from Aladdin.
Phalloidin Staining and Immunofluorescence
To determine phenylephrine-induced hypertrophy, Alexa Fluor 488 Phalloidin (Cell Signaling) was used to fluorescently stain the cytoskeleton by the binding of phalloidin to F­actin. In brief, cells were fixed for 15 min using 4% paraformaldehyde then rinsed three times in PBS.
Following incubation of Alexa Fluor 488 Phalloidin and Hoechst for 15 min at room temperature, cells were rinsed once with PBS. Images were carried out using an ImageXpress Micro® Confocal High-Content Imaging System (Molecular Devices).

[2] = target: T1, cGMP-dependent type II protein kinase (PRKG2) (Homo sapiens, UniProt Q13237); assay: KinaseProfiler Assay, AGC kinase panel; assay type: biochemical; conditions: HBT 10 µmol; normalized by positive inhibitors
T1 construct: purchased Eurofins Discovery (KinaseProfiler Service)
T1 sequence (Q13237 1-762): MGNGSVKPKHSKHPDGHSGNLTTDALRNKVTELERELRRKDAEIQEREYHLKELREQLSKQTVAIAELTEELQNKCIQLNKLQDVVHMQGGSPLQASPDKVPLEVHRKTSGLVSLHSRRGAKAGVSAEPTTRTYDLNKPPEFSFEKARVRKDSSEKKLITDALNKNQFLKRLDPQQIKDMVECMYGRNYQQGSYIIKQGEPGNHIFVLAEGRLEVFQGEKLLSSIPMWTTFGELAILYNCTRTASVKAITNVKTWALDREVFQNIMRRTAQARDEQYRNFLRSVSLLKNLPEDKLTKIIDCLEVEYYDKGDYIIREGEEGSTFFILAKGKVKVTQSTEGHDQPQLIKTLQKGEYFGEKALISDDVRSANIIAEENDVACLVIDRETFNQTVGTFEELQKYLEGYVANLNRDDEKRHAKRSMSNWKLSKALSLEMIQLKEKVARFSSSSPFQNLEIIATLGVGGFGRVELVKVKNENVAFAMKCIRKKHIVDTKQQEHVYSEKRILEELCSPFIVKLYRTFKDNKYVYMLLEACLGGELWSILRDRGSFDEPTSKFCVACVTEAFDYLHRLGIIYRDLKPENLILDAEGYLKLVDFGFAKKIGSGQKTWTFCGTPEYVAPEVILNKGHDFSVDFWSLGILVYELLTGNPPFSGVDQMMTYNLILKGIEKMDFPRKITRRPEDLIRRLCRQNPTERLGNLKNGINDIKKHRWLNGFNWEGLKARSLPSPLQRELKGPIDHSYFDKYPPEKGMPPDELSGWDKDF
From the text: 20 structurally related flavonoids of HBT were collected, which differ in the number and position of —OH groups, and examined for their effects on SGK1 activity. Based on the docking prediction, the —OH group at the C‐4’ position of HBT was required for the interaction with the key SGK1 residue D177. Therefore, the 20 flavonoids were divided into two classes according to the presence or absence of an —OH group at C‐4’ (Figure 4B). At both tested concentrations, flavonoids with an —OH group at C‐4’ (class A) inhibited SGK1 more than those without an —OH group at C‐4’ (class B) (Figure 4C). The IC50 of each compound is listed in Figure 4D; and Figure S6 (Supporting Information). […] Conversely, the absence of an ‐OH group at C‐8 led to a greater than 10‐fold reduction in flavonoid SGK1 inhibitory activity, as shown by the performance of A1 or A4. […] The inhibitory activity of HBT (10 µmol) against 28 human AGC kinases was tested by KinaseProfiler Assay (Eurofins Discovery). The percentage of HBT's inhibitory activity against each kinase was normalized by the respective positive inhibitors of AGC kinases.
The initial crystal structures of SGK1 (PDB entry: 3HDN, 3HDM, and 2R5T) were obtained from the Protein Data Bank (PDB). The prepared inhibitors were then docked by Glide with the extra precision (XP) scoring mode to estimate the binding affinity for each protein–ligand complex. The detailed process of docking has been described previously.^[ [46] ^] HEK293T cells were transfected with SGK1 mutant plasmids. After 24 h, cells were lysed and immunoprecipitated with anti‐FLAG antibody and beads. Immune complexes were washed with kinase buffer and incubated in kinase buffer with substrate peptide for 1 h at 30 ℃ followed by LC/MS measurement as described above. KINOMEscan Profiling Service and KinaseProfiler Service Assay were provided by Eurofins Discovery.

Structure (SMILES): O=c1c(O)c(-c2ccc(O)cc2)oc2c(O)c(O)cc(O)c12 [HBT, herbacetin]
- PE-induced hypertrophy, cardiomyocyte cell area ([1]; 50 µmol PE 48 h, Ext.R 50 µg mL−1 or HBT 50 µmol): attenuate PE‐induced hypertrophy
- transcriptional level of ANP and BNP ([1]; 50 µmol PE, Ext.R or HBT): inhibited
- phosphorylation of SGK1 and FoxO1 ([1]; PE stimulation, western blot): significantly reduce
- protein expression of ACTA1, BNP and Myosin ([1]; PE stimulation, western blot): significantly reduced
- phosphorylation level of NF-κB p65 (Ser536) ([1]; PE-treated cardiomyocytes): did not affect
- phosphorylation of Nedd4l ([1]; induced by PE): reduce the phosphorylation
- inhibitory activity on PRKG2 [2]: 45%
